Measured values reported in ChEMBL document CHEMBL1770065, “Discovery of a clinical candidate from the structurally unique dioxa-bicyclo[3.2.1]octane class of sodium-dependent glucose cotransporter 2 inhibitors” (J Med Chem, 2011).
pIC50: −log10 of the molar value.

How the values were obtained:
[1] = biological target: T1, Solute carrier family 22 member 6 (Homo sapiens, UniProt Q4U2R8); assay: Inhibition of human OAT1
T1 sequence (Q4U2R8 whole entry): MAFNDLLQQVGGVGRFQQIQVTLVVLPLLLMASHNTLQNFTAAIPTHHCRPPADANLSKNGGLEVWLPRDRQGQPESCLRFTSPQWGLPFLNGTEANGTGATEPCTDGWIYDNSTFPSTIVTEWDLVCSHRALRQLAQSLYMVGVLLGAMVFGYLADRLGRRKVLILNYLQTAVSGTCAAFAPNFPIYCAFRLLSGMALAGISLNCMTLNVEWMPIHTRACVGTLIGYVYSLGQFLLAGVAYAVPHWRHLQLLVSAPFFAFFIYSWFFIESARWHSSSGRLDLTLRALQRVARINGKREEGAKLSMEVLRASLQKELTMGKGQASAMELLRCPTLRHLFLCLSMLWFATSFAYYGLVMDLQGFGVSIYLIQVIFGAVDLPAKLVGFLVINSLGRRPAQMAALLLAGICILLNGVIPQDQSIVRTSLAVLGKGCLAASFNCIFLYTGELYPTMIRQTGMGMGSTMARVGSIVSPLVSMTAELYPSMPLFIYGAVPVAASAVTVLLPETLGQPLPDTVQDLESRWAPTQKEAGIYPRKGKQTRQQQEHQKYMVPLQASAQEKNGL

[2] = Cmax in Sprague-Dawley rat at 5 mg/kg, po; format: ADME, organism-based; design: dose 5 mg/kg, route oral; details: in vivo
[3] = Oral bioavailability in Sprague-Dawley rat at 5 mg/kg; format: ADME, organism-based; details: in vivo
[4] = biological target: T2, Solute carrier family 22 member 2 (Rattus norvegicus, UniProt Q9R0W2); assay: Inhibition of rat OCT2 expressed in HEK293 cells; format: cell-based
T2 sequence (Q9R0W2 whole entry): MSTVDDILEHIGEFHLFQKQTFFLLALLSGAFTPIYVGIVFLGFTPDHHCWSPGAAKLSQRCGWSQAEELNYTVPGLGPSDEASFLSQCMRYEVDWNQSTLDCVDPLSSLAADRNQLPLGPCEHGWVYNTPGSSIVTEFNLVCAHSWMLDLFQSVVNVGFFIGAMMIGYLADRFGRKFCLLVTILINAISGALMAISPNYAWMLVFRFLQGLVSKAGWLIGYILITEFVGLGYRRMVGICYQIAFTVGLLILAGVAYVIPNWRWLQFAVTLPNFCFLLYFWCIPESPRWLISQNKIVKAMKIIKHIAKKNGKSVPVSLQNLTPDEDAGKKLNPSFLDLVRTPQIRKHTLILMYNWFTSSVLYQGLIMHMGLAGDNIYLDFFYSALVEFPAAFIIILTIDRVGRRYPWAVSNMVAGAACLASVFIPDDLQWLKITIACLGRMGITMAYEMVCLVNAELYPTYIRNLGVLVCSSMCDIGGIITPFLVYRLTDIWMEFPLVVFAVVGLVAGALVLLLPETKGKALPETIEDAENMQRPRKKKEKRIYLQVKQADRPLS

Rattus norvegicus [5] = assay: Antidiabetic activity in Sprague-Dawley rat assessed as increase of urinary glucose excretion assessed per 200 gram of body weight at 30 mg/kg, po after 24 hrs; format: functional, Urine
Rattus norvegicus [6] = assay: Average free plasma concentration in Sprague-Dawley rat at 30 mg/kg, po after 24 hrs; format: ADME, organism-based; design: dose 30 mg/kg, route oral; details: in vivo
[7] = biological target: T3, Sodium/glucose cotransporter 2 (Rattus norvegicus, UniProt P53792); assay: Inhibition of rat SGLT2
T3 sequence (P53792 whole entry): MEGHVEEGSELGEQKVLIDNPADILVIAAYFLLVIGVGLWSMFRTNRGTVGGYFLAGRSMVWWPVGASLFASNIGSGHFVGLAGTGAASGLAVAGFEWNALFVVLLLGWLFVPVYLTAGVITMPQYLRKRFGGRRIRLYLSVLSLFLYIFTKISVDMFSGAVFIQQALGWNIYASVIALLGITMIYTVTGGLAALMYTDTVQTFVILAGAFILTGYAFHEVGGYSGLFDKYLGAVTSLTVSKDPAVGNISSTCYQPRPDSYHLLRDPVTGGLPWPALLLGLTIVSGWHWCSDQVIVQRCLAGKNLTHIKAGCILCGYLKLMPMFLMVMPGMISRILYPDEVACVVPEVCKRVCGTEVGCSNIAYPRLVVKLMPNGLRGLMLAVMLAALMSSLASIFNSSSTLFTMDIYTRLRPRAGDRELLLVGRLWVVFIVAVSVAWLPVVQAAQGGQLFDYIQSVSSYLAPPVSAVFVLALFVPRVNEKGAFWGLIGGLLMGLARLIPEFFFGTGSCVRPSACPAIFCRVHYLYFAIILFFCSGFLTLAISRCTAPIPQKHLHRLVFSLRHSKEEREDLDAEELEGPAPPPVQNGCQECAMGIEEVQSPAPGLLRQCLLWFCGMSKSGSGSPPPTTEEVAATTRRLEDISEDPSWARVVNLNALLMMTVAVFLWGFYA

[8] = biological target: T4, Sodium/glucose cotransporter 2 (Homo sapiens, UniProt P31639); assay: Inhibition of human SGLT2 expressed in CHO cells assessed as inhibition of methyl alpha-D-glucopyranoside uptake after 1 hr; format: cell-based
T4 sequence (P31639 whole entry): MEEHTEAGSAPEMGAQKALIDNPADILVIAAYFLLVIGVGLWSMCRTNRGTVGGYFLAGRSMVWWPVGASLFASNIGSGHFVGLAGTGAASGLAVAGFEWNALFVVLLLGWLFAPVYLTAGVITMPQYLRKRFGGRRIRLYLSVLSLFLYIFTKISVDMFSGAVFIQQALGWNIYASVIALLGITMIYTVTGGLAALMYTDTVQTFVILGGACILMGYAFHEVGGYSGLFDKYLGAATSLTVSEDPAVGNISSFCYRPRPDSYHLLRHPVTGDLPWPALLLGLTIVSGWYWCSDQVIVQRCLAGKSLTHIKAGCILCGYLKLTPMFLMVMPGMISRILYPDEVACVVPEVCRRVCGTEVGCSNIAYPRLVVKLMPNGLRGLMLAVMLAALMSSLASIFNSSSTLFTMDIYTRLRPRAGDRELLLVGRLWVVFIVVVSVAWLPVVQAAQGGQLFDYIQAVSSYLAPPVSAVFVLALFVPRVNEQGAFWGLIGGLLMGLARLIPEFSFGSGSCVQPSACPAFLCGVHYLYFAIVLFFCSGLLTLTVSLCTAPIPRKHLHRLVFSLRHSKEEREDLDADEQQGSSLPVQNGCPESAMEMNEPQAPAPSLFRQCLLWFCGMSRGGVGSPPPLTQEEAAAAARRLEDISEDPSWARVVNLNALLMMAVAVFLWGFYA

Plasma = assay: Fraction unbound in human plasma at 1000 ng/mL by equilibrium dialysis method; format: ADME, cell-free
[9] = Apparent intrinsic clearance in human liver microsomes assessed per mg of protein; format: ADME, Microsome
[10] = Apparent intrinsic clearance in human hepatocytes assessed per million of cells; format: ADME, cell-based, Liver, Hepatocyte

inhibition (INH) [1]: Not Active | Cmax [2]: 1940 ng/mL | bioavailability [3]: 69% | inhibition (INH) [4]: Not Active | Cp (Rattus norvegicus [6]): 408 nM | pIC50 [7]: 8.94 | pIC50 [8]: 9.06 | Fu (Plasma): 6.4% | microsomal CLint [9]: 12 µL/min/mg | hepatocyte CLint [10]: 4.5 µL/min/1e6 cells
Compound: CCOc1ccc(Cc2cc([C@]34OC[C@](CO)(O3)[C@@H](O)[C@H](O)[C@H]4O)ccc2Cl)cc1 [ERTUGLIFLOZIN]
Activity (Rattus norvegicus [5]): 2554 mg
